Measured values taken from patent US5665745A, “Heterocyclic compounds and their preparation and use” (Eli Lilly and Company, priority 1995, dated 1997).
Where two headings read alike, the source gives them in different places.

Experiments:
[1] = target: T1, muscarinic receptors (M1 -site, pirenzepine sensitive site) (Rattus norvegicus, UniProt P08482); experiment: inhibition of ^3 HPRZ (pirenzepine, [N-methyl-^3 H]) binding to rat cerebral cortex membranes; set-up: species or system rat (male Wistar
T1 construct: from tissue; host or cells: cerebral cortex membranes of male Wistar rats
T1 sequence (P08482 1-460): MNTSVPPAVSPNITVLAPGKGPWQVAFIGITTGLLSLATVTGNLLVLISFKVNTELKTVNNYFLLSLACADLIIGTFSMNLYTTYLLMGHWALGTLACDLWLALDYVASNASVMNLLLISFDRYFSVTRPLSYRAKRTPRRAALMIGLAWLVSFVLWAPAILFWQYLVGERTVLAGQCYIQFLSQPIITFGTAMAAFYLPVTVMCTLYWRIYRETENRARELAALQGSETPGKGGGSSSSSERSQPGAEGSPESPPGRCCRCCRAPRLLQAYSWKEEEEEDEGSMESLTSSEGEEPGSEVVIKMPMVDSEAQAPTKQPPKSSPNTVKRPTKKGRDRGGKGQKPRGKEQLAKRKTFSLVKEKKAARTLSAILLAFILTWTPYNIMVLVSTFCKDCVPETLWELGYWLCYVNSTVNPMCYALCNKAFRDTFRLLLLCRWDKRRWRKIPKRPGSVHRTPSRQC
How it was run: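 Male Wistar rat cortex membranes in 20 mM Hepes pH 7.4 were incubated with 1.0 nM (final) [3H]pirenzepine for 60 min at 20° C; nonspecific binding was defined with 1 μg/mL atropine. Filtration and scintillation counting were used, and IC50 was calculated from a single concentration assuming mass-action kinetics.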

[2] = target: muscarinic acetylcholine receptors; experiment: inhibition of specific binding of ^3 H-Oxotremorine-M (^3 H-Oxo); set-up: species or system rat (male Wistar; conditions: ^3 H-Oxotremorine 1.0 nM, rat cortex, 30 min. at 25° C.
How it was run: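 Rat cortex membranes (male Wistar) in 20 mM Hepes pH 7.4 incubated with 1.0 nM ^3H-Oxotremorine-M (final) and test compound for 30 min at 25 °C; arecoline defines non-specific binding. Bound radioactivity by filtration and scintillation counting; IC50 (nM) from a single concentration via Co/Cx mass-action formula, reflecting high- and medium-affinity sites.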

[3] = ^3 HPRZ 1.0 nM, rat cortex, 60 min. at 20° C., read-out: ^3 HPRZ IC50 (head from b208 on: Pir IC-50)

| IC50 [1, 3] [nM] | SMILES | IC50 [1] [nM] | IC50 [2] [nM] |
| --- | --- | --- | --- |
|  | CCCCSc1nsnc1OC1CN2CCC1CC2 (racemic) [Compound 14, (±)-3-Butylthio-4-(1-azabicyclo[2.2.2]octyl-3-oxy)-1,2,5-thiadiazole] | 1.9 | 1.3 |
|  | CC(C)CCCSc1nsnc1OC1CN2CCC1CC2 (racemic) [Compound 39, (±)-3-(4-Methylpentylthio)-4-(1-azabicyclo[2.2.2]octyl-3-oxy)-1,2,5-thiadiazole] | 15 | 13 |
|  | COCCOc1nsnc1OC1CN2CCC1CC2 (racemic) [Compound 111, (±)-3-(2-Methoxyethoxy)-4-(1-azabicyclo[2.2.2]octyl-3-oxy)-1,2,5-thiadiazole] | 85 | 38 |
| 4 | Fc1ccc(COc2nsnc2O[C@@H]2CN3CCC[C@H]2C3)cc1 (relative stereo) [Compound 194, (±)-endo-3-(4-Fluorobenzyloxy)-4-(1-azabicyclo[3.2.1]octyl-6-oxy)-1,2,5-thiadiazole] |  | 2.1 |
| 475 | CCCCOc1nsnc1O[C@@H]1CCC[C@H]1N(C)C (racemic) [Compound 52, (±)-trans-3-Butyloxy-4-(2-dimethylaminocyclopentyloxy)-1,2,5-thiadiazole] |  | > 1000 |
|  | FC(F)(F)c1ccc(SCCSc2nsnc2OC2CN3CCC2CC3)s1 (racemic) [Compound 55, (±)-3-(2-(2-Thio-5-trifluoromethylthienyl)ethylthio)-4-(1-azabicyclo[2.2.2]octyl-3-oxy)-1,2,5-thiadiazole] | 23 | 11 |
| 128 | FC(F)(F)CCCOc1nsnc1OC1CC2CCC1NC2 (mixture of isomers) [Compound 162, (±)-endo-3-(4,4,4-Trifluorobutyloxy)-4-(2-azabicyclo[2.2.2]octyl-6-oxy)-1,2,5-thiadiazole] |  | 179 |
|  | CCCCOc1nsnc1O[C@H]1CN2CC[C@H]1C2 (relative stereo) [Compound 26, (±)-Exo-3-butyloxy-4-(1-azabicyclo[2.2.1]heptyl-3-oxy)-1,2,5-thiadiazole] | 37 | 11 |
| 61 | c1ccc2cc(CCOc3nsnc3O[C@@H]3CN4CCC[C@H]3C4)ccc2c1 (relative stereo) [Compound 178, (±)-endo-3-[2-(2-Napthyl)ethoxy]-4-(1-azabicyclo[3.2.1]octyl-6-oxy)-1,2,5-thiadiazole] |  | 15 |
|  | FC(F)(F)C(F)(F)C(F)(F)COc1nsnc1O[C@@H]1CN2CCC[C@H]1C2 (relative stereo) [Compound 187, (±)-endo-3-(4,4,4,3,3,2,2-Heptafluorobutoxy)-4-(1-azabicyclo[3.2.1]octyl-6-oxy)-1,2,5-thiadiazole] | 1.6 | 2.8 |
| 35 | CCCCSc1nsnc1OC1CCNC1 (racemic) [Compound 53, (±)-3-Butylthio-4-(3-pyrrolidnyloxy)-1,2,5-thiadiazole] |  | 24 |
| 3 | CSCCOc1nsnc1O[C@@H]1CN2CCC[C@H]1C2 (relative stereo) [Compound 170, (±)-endo-3-(2-Methylthioethoxy)-4-(1-azabicyclo[3.2.1]octyl-6-oxy)-1,2,5-thiadiazole] |  | 1.5 |
| 12 | C1CCC(CCOc2nsnc2O[C@@H]2CN3CCC[C@H]2C3)CC1 (relative stereo) [Compound 200, (±)-endo-3-(2-Cyclohexylethoxy)-4-(1-azabicyclo[3.2.1]octyl-6-oxy)-1,2,5-thiadiazole] |  | 16 |
|  | CCOc1nsnc1OC1CN2CCC1CC2 (racemic) [Compound 6, (±)-3-Ethoxy-4-(1-azabicyclo[2.2.2]octyl-3-oxy)-1,2,5-thiadiazole] | 32 | 17 |
| 27 | Cc1ncsc1CCOc1nsnc1O[C@@H]1CN2CCC[C@H]1C2 (relative stereo) [Compound 171, (±)-endo-3-(2-(4-Methyl-1,3-thiazol-5-yl)ethoxy)-4-(1-azabicyclo[3.2.1]octyl-6-oxy)-1,2,5-thiadiazole] |  | 19 |
|  | c1csc(Sc2nsnc2OC2CN3CCC2CC3)c1 (racemic) [Compound 60, (±)-3-(2-Thienyl)thio)-4-(1-azabicyclo[2.2.2]octyl-3-oxy)-1,2,5-thiadiazole] | 14 | 19 |
| 5.3 | CCCCCCOc1nsnc1OC1CC2CCC1NC2 (mixture of isomers) [Compound 161, (±)-exo-3-(Hexyloxy)-4-(2-azabicyclo[2.2.2]octyl-6-oxy)-1,2,5-thiadiazole] |  | 6.8 |
|  | c1ccc(CCCCSc2nsnc2OC2CN3CCC2CC3)cc1 (racemic) [Compound 148, (±)-3-(4-Phenylbutylthio)-4-(1-azabicyclo[2.2.2]octyl-3-oxy)-1,2,5-thiadiazole] | 25 | 8 |
| 11 | CC(C)=CCCOc1nsnc1O[C@@H]1CN2CCC[C@H]1C2 (relative stereo) [Compound 180, (±)-endo-3-(4-Methyl-3-pentenyloxy)-4-(1-azabicyclo[3.2.1]octyl-6-oxy)-1,2,5-thiadiazole] |  | 4.7 |
| 48 | CCCCOc1nsnc1OCCN(C)C [Compound 33, 3-Butyloxy-4-(2-(dimethylamino)ethoxy)-1,2,5-thiadiazole] |  | 51 |
| 5 | c1csc(CCCOc2nsnc2O[C@@H]2CN3CCC[C@H]2C3)c1 (relative stereo) [Compound 206, (±)-endo-3-[3-(2-Thienyl)propoxy]-4-(1-azabicyclo[3.2.1]octyl-6-oxy)-1,2,5-thiadiazole] |  | 6.1 |
|  | FC(F)(F)c1ccc(CCCSc2nsnc2OC2CN3CCC2CC3)cc1 (racemic) [Compound 74, (±)3-{3-[4-(Trifluoromethyl)phenyl]propylthio}-4-[-3-(1-azabicyclo[2.2.2]octyloxy)]-1,2,5-thiadiazole] | 40 | 24 |
|  | CCCCCCSc1nsnc1OC1CN2CCC1CC2 (racemic) [Compound 17, (±)-3-Hexylthio-4-(1-azabicyclo[2.2.2]octyl-3-oxy)-1,2,5-thiadiazole] | 8.8 | 5.2 |
|  | C1CC1COc1nsnc1OC1CN2CCC1CC2 (racemic) [Compound 106, (±)-3-(Cyclopropylmethoxy)-4-(1-azabicyclo[2.2.2]octyl-3-oxy)-1,2,5-thiadiazole] | 95.4 | 9.5 |
| 3.1 | CC(C)=CCOc1nsnc1O[C@@H]1CN2CCC[C@H]1C2 (relative stereo) [Compound 201, (±)-endo-3-(3-Methyl-2-butenyloxy)-4-(1-azabicyclo[3.2.1]octyl-6-oxy)-1,2,5-thiadiazole] |  | 3.7 |

| SMILES | IC50 [1, 3] [nM] | IC50 [1] [nM] | IC50 [2] [nM] |
| --- | --- | --- | --- |
| Fc1ccc(OCCOc2nsnc2OC2CN3CCC2CC3)cc1 (racemic) [Compound 121, (±)-3-(2-[4-Fluorophenoxy]ethoxy)-4-(1-azabicyclo[2.2.2]octyl-3-oxy)-1,2,5-thiadiazole] | 146 |  | 12 |
| CC(C)(CCOc1nsnc1O[C@@H]1CN2CCC[C@H]1C2)c1ccccc1 (relative stereo) [Compound 204, (±)-endo-3-(3-Methyl-3-phenylbutoxy)-4-(1-azabicyclo[3.2.1]octyl-6-oxy)-1,2,5-thiadiazole] | 153 |  | 59 |
| CCCS(=O)(=O)c1nsnc1OC1CN2CCC1CC2 (racemic) [Compound 103, (±)-3-propylsulfonyl-4-(1-azabicyclo[2.2.2]octyl-3-oxy)-1,2,5-thiadiazole] | 115 |  | 107 |
| C1CCC(CCCCOc2nsnc2O[C@@H]2CN3CCC[C@H]2C3)CC1 (relative stereo) [Compound 202, (±)-endo-3-(4-Cyclohexylbutoxy)-4-(1-azabicyclo[3.2.1]octyl-6-oxy)-1,2,5-thiadiazole] | 31 |  | 13 |
| CCCCOc1nsnc1O[C@H]1C[C@@H]2CC[C@H]1N2 (relative stereo) [Compound 133, (±)-exo-3-Butyloxy-4-(7-azabicyclo[2.2.1]heptyl-3-oxy)-1,2,5-thiadiazole] | > 1000 |  | > 1000 |
| FC(F)(F)C(F)(F)COc1nsnc1OC1CN2CCC1CC2 (racemic) [Compound 125, (±)-3-(3,3,3,2,2-Pentafluoropropyloxy)-4-(1-azabicyclo[2.2.2]octyl-3-oxy)-1,2,5-thiadiazole] | 191 |  | 36 |
| COc1nsnc1OC1CN2CCC1CC2 (racemic) [Compound 5, (±)-3-Methoxy-4-(1-azabicyclo[2.2.2]octyl-3-oxy)-1,2,5-thiadiazole] | 183 |  | 162 |
| FCCCCOc1nsnc1OC1CN2CCC1CC2 (racemic) [Compound 117, (±)-3-(4-Fluorobutyloxy)-4-(1-azabicyclo[2.2.2]octyl-3-oxy)-1,2,5-thiadiazole] | 238 |  | 32 |
